Source: patent publication US4882349A, “Pyrrolacetic amides having antiinflammatory activity” (priority 1982, dated 1989)

Tests used:
[1] = system: mucus secreted by the respiratory airway; assay: antisecretory activity, respiratory mucus secretion; assay type: in vivo, albino male New Zealand rabbits; conditions: vs control group
Experimental: The experiment was carried out in accordance with the method described by Y. Kase (Folia Pharmacol. Jap. 73: 605, 1977) for the purpose of investigating whether or not the compounds under examination determine changes in the volume of the mucus secreted by the respiratory airway. Groups of four albino male New Zealand rabbits (mean weight: 2.5 kg) were used for testing each dose per single group. The animals were anesthetized with urethane (1.1 g/ks b.w.) via the intraperitoneal route and a Y cannula was inserted into the trachea. In order to stimulate mucous secretion a humidifier was connected to the cannula permitting the animals to spontaneously breathe air with 100% humidity at a constant temperature of 39° C. The secreted mucus was collected through another opening in the cannula and measured at three and six hours after administration of the compounds under examination or of the vehicle alone administered in the order of […] (controls). Calculation of the increase or decrease in mucous secretion was based upon the percentage differences between the groups treated with the compounds under examination and the control group. Table VII gives the percentage differences in mucous secretion, and the tested compounds with relative doses and routes of administration.

[2] = system: phenyl-p-quinone-induced writhing (abdominal contractions); assay: phenylquinone-induced writhing test (analgesic activity), compound given 30 min before phenyl-p-quinone; assay type: in vivo, male Wistar rats
Experimental: Male Wistar rats weighing 110±5 g were caged for 10 days at 22±1° C. and given a balanced diet with free access to water. Twenty-four hours before the experiment the animals were randomized into groups of 10 and fasted for 14 hours but with free access to water. Each dose was tested in 3 groups of rats. Thirty minutes following administration either orally or parenterally of the products to be tested and the vehicle alone (0.5% carboxymethyl-cellulose in physiological saline) in the control animals, each rat was given 2 ml of a 5% absolute ethanol aqueous solution containing 0.36% of phenyl-p-quinone (Sigma Chemical Company) in order to provoke writhings. Fifteen minutes after administration of phenyl-p-quinone the number of contractions were counted for 20 minutes. The inhibiting effect of the compounds under examination on the abdominal contractions induced by phenyl-p-quinone was calculated by the following formula: % protection= [formula]
Table V lists the tested compounds, doses, routes of administration and their efficacy expressed as percentage of protection, taking into account that phenyl-p-quinone was administered thirty minutes after the compounds.

[3] = system: cough provoked by mechanical stimulation of the tracheal bifurcation mucosa; assay: antitussive activity, mechanically provoked coughing; assay type: in vivo, albino Guinea-pigs; conditions: 1 h after administration
Experimental: The antitussive effect on albino Guinea-pigs weighing 300 g was evaluated using the method described by Y. Kase (Selected Pharmacological Testing Methods, p.363, Marcel Dekker Inc., New York, 1968). Each dose was tested in a group of animals with a Y cannula inserted into the trachea. In order to provoke coughing, the mucosa of the tracheal bifurcation was mechanically stimulated by insertion of a wild boar's hair through an opening in the cannula, while the other opening was connected to a kymograph to plot the amplitude and/or frequency. The reduction in the number of coughs was evaluated at one hour after administration of the compounds under examination by following the plottings for twenty minutes and comparing the response of the control animals.

[4] = system: carrageenin-induced oedema; assay: carrageenin-induced oedema test (anti-inflammatory activity); assay type: in vivo, albino male Wistar rats
Experimental: This effect was evaluated by means of an experimental model reproducing acute inflammation: for this purpose the carrageenin- induced oedema test was employed following the method described by C.
Albino male Wistar rats weighing 140-160 g were caged for 10 days at 22±1° C. and given a balanced diet and water ad libitum. Eighteen hours before the experiment the animals were randomized into groups of ten and fasted but with free access to water. Each dose was tested in three groups of rats. Each compound was given either orally, by gavage, or parenterally--intraperitoneal injection--administering as follows:
controls: 0.5% carboxymethylcellulose suspension in physiological saline, 10 ml/kg
treated: suspension of the compounds to be tested in the same vehicle and at the same volume (10 ml/kg) used for the controls at the doses specified below.
One hour after administration of the compounds and vehicle, in order to provoke the oedema for determining the protective effect of the substances under examination, each rat received, by subcutaneous injection into the plantar surface of the left paw, 0.1 ml of 1% sterile carrageenin suspension.

`Cc1ccc(C(=O)c2ccc(CC(=O)NCC(=O)O)n2C)cc1` [Compound 1-c, 1-methyl-5-p-toluoylpyrrole-2-acetamidoacetic acid] was tested, and the “% difference in mucus secretion” value ([1]; 50 mg/Kg i.p., 3 h) was 0.0%, the “% difference in mucus secretion” value ([1]; 50 mg/Kg i.p., 6 h) was 0.0% and the “% difference in mucus secretion” value ([1]; 50 mg/Kg per os, 3 h) was 0.0%. For the same molecule, the “% difference in mucus secretion” value ([1]; 50 mg/Kg per os, 6 h) was “+6%”, the “% difference in mucus secretion” value ([1]; 75 mg/Kg i.p., 3 h) was -12% and the “% difference in mucus secretion” value ([1]; 75 mg/Kg i.p., 6 h) was -7%. For the same molecule, the “% difference in mucus secretion” value ([1]; 75 mg/Kg per os, 3 h) was -10%, the “% difference in mucus secretion” value ([1]; 75 mg/Kg per os, 6 h) was -8% and the “% difference in mucus secretion” value ([1]; 100 mg/Kg i.p., 3 h) was -37%. The “% difference in mucus secretion” value ([1]; 100 mg/Kg i.p., 6 h) was -25%, the “% difference in mucus secretion” value ([1]; 100 mg/Kg per os, 3 h) was -35% and the “% difference in mucus secretion” value ([1]; 100 mg/Kg per os, 6 h) was -22%. The “% Protection” value ([2]; 5 mg/Kg i.p.) was 27.1%, the “% Protection” value ([2]; 5 mg/Kg per os) was 25.3% and the “% Protection” value ([2]; 10 mg/Kg i.p.) was 46.3%. For the same molecule, the “% Protection” value ([2]; 10 mg/Kg per os) was 49.0%, the “% Protection” value ([2]; 20 mg/Kg i.p.) was 82.0% and the “% Protection” value ([2]; 20 mg/Kg per os) was 85.1%. The “% inhibition, cough amplitude” value ([3]; 50 mg/Kg i.p.) was 10%, the “% inhibition, cough frequency” value ([3]; 50 mg/Kg i.p.) was 25% and the “% inhibition, cough amplitude” value ([3]; 50 mg/Kg per os) was 12%. For the same molecule, the “% inhibition, cough frequency” value ([3]; 50 mg/Kg per os) was 20%, the “% inhibition, cough amplitude” value ([3]; 75 mg/Kg i.p.) was 15% and the “% inhibition, cough frequency” value ([3]; 75 mg/Kg i.p.) was 27%. The “% inhibition, cough amplitude” value ([3]; 75 mg/Kg per os) was 20%, the “% inhibition, cough frequency” value ([3]; 75 mg/Kg per os) was 22% and the “% inhibition, cough amplitude” value ([3]; 100 mg/Kg i.p.) was 40%. The “% inhibition, cough frequency” value ([3]; 100 mg/Kg i.p.) was 51%, the “% inhibition, cough amplitude” value ([3]; 100 mg/Kg per os) was 38% and the “% inhibition, cough frequency” value ([3]; 100 mg/Kg per os) was 45%. For the same molecule, the oedema % inhibition ([4]; 25 mg/Kg per os, 2 h) was 38,6%, the oedema % inhibition ([4]; 25 mg/Kg per os, 4 h) was 39,1% and the oedema % inhibition ([4]; 25 mg/Kg per os, 6 h) was 37.2%. It also gave an oedema % inhibition ([4]; 25 mg/Kg per os, 24 h) of 12.1%, an oedema % inhibition ([4]; 25 mg/Kg per os, 48 h) of 0.0% and an oedema % inhibition ([4]; 25 mg/Kg per os, 72 h) of 0.0%. For the same molecule, the oedema % inhibition ([4]; 25 mg/Kg, Table IV (route not given), 2 h) was 40.0%, the oedema % inhibition ([4]; 25 mg/Kg, Table IV (route not given), 4 h) was 44.8% and the oedema % inhibition ([4]; 25 mg/Kg, Table IV (route not given), 6 h) was 45.0%. The oedema % inhibition ([4]; 25 mg/Kg, Table IV (route not given), 24 h) was 9.0%, the oedema % inhibition ([4]; 25 mg/Kg, Table IV (route not given), 48 h) was 0.0% and the oedema % inhibition ([4]; 25 mg/Kg, Table IV (route not given), 72 h) was 0.0%. For the same molecule, the oedema % inhibition ([4]; 50 mg/Kg per os, 2 h) was 51.8%, the oedema % inhibition ([4]; 50 mg/Kg per os, 4 h) was 58.9% and the oedema % inhibition ([4]; 50 mg/Kg per os, 6 h) was 60.4%. The oedema % inhibition ([4]; 50 mg/Kg per os, 24 h) was 18.7%, the oedema % inhibition ([4]; 50 mg/Kg per os, 48 h) was 0.0% and the oedema % inhibition ([4]; 50 mg/Kg per os, 72 h) was 0.0%. For the same molecule, the oedema % inhibition ([4]; 50 mg/Kg, Table IV (route not given), 2 h) was 55.0%, the oedema % inhibition ([4]; 50 mg/Kg, Table IV (route not given), 4 h) was 64.0% and the oedema % inhibition ([4]; 50 mg/Kg, Table IV (route not given), 6 h) was 65.4%. It also gave an oedema % inhibition ([4]; 50 mg/Kg, Table IV (route not given), 24 h) of 20.0%, an oedema % inhibition ([4]; 50 mg/Kg, Table IV (route not given), 48 h) of 8.0% and an oedema % inhibition ([4]; 50 mg/Kg, Table IV (route not given), 72 h) of 0.0%. The oedema % inhibition ([4]; 100 mg/Kg per os, 2 h) was 69.0%, the oedema % inhibition ([4]; 100 mg/Kg per os, 4 h) was 70.1% and the oedema % inhibition ([4]; 100 mg/Kg per os, 6 h) was 67.0%. The oedema % inhibition ([4]; 100 mg/Kg per os, 24 h) was 26.0%, the oedema % inhibition ([4]; 100 mg/Kg per os, 48 h) was 10.0% and the oedema % inhibition ([4]; 100 mg/Kg per os, 72 h) was 0.0%. For the same molecule, the oedema % inhibition ([4]; 100 mg/Kg, Table IV (route not given), 2 h) was 74.8%, the oedema % inhibition ([4]; 100 mg/Kg, Table IV (route not given), 4 h) was 77.5% and the oedema % inhibition ([4]; 100 mg/Kg, Table IV (route not given), 6 h) was 74.0%. For the same molecule, the oedema % inhibition ([4]; 100 mg/Kg, Table IV (route not given), 24 h) was 30.4%, the oedema % inhibition ([4]; 100 mg/Kg, Table IV (route not given), 48 h) was 12.0% and the oedema % inhibition ([4]; 100 mg/Kg, Table IV (route not given), 72 h) was 0.0%.
